The results in this text go back to ChEMBL document CHEMBL1130529, “Synthesis and biological activity of 1,2,3,4-tetrahydroquinoline and 3,4-(1H)-dihydroquinolin-2-one analogs of retinoic acid” (Bioorg Med Chem Lett, 1997).

In assay [1] the target is T1, Ornithine decarboxylase (Mus musculus) (UniProt P00860).
T1 sequence (whole entry): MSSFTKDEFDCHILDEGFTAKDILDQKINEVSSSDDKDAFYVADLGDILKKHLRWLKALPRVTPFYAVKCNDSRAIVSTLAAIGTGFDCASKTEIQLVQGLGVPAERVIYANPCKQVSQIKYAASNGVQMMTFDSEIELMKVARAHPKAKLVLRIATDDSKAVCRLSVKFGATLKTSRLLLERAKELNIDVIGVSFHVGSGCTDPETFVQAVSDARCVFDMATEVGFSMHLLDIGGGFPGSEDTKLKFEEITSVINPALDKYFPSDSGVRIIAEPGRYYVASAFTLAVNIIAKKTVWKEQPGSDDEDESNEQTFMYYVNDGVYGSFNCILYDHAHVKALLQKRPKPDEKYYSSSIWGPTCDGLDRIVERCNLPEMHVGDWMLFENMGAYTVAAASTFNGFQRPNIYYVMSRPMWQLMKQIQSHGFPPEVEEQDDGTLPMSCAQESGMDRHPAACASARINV
As to the kind of experiment: Inhibition of ornithine decarboxylase activity in hairless mouse skin in vivo. It counts as organism-based.

Assay [2] has as its target T2, Retinoic acid receptor gamma (Homo sapiens, UniProt P13631).
T2 sequence (P13631 whole entry): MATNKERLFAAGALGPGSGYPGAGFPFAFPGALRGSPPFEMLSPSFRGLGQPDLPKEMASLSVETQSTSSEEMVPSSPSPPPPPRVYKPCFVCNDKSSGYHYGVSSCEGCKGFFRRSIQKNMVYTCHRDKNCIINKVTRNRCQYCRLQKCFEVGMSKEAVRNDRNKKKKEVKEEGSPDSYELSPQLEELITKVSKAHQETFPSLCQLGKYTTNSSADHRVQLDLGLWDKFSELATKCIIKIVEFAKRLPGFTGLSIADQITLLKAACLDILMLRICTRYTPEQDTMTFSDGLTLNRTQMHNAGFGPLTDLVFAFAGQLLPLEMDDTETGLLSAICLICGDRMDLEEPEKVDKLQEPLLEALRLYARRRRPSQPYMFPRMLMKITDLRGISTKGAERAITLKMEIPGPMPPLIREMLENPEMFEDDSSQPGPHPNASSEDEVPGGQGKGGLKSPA
As to the kind of experiment: Binding affinity for Retinoic acid receptor gamma.

Assay [3] concerns the target T3, Retinoic acid receptor alpha (Homo sapiens, UniProt P10276).
T3 sequence (P10276 whole entry): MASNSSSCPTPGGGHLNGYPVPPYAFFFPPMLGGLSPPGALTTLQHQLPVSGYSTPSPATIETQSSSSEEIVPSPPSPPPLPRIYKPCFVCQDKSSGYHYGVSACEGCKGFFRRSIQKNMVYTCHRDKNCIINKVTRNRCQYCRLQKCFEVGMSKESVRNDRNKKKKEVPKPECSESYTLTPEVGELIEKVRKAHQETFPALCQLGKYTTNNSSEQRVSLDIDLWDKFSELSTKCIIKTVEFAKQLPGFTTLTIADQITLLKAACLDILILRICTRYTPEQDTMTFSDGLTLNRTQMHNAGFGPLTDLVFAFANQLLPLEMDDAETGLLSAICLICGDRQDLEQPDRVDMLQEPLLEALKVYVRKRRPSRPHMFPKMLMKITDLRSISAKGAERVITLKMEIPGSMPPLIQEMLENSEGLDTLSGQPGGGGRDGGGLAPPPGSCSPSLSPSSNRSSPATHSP
As to the kind of experiment: Binding affinity for Retinoic acid receptor alpha; Not active.

For assay [4], the target named is T4, Retinoic acid receptor beta (Homo sapiens, UniProt P10826).
T4 sequence (P10826 whole entry): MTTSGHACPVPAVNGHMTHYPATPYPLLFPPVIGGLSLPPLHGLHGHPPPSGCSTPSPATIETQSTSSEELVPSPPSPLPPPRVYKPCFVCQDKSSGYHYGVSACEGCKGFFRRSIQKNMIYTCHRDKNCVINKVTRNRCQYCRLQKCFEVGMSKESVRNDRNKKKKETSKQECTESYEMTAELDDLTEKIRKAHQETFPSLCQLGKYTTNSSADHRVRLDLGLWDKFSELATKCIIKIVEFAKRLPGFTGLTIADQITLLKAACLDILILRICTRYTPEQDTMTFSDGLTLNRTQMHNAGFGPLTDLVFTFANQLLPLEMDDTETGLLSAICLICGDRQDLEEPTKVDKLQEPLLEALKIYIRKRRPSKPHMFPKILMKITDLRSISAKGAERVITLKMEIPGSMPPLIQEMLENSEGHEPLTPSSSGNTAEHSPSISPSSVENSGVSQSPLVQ
As to the kind of experiment: Transactivation potency for Retinoic acid receptor beta.

For assay [5], the target named is T3, Retinoic acid receptor alpha. As to the kind of experiment: Transactivation potency for Retinoic acid receptor alpha; Not active.
Assay [6] concerns the target T4, Retinoic acid receptor beta. As to the kind of experiment: Binding affinity for Retinoic acid receptor beta.
The target of assay [7] is T2, Retinoic acid receptor gamma. As to the kind of experiment: Transactivation potency for Retinoic acid receptor gamma.
Assay [8] deals with T3, Retinoic acid receptor alpha. As to the kind of experiment: Binding affinity for Retinoic acid receptor alpha.
Assay [9] shares this target. As to the kind of experiment: Transactivation potency for Retinoic acid receptor alpha.
For assay [10], the target named is T4, Retinoic acid receptor beta. As to the kind of experiment: Transactivation potency for Retinoic acid receptor beta; Not active.
Assay [11] deals with T2, Retinoic acid receptor gamma. As to the kind of experiment: Transactivation potency for Retinoic acid receptor gamma; Not active.

The structures appear in SMILES notation.

In the case of `CCOC(=O)c1ccc(C#Cc2ccc3c(c2)C(C)(C)CCN3C(C)C)cc1`, the IC60 in [1] was determined as 0.4 nM.

Take `CC1(C)CCNc2cc(C#Cc3ccc(C(=O)O)cc3)ccc21`: the Kd (commonly the constant that tells how readily two partners part at equilibrium) in assay [2] is 233 nM; in assay [3], “Not Active”; in [6], 211 nM. The EC50 (in general, the concentration giving half of the maximal effect) in assay [4] was 36 nM; in [5], “Not Active”; in assay [7], 54 nM.

The molecule `CCOC(=O)c1ccc(C#Cc2ccc3c(c2)N(C(C)C)C(=O)CC3(C)C)cc1` showed an IC60 in assay [1] of 2.9 nM.

In the case of `CC(C)N1CCC(C)(C)c2ccc(C#Cc3ccc(C(=O)O)cc3)cc21`, the Kd in assay [2] worked out at 52 nM; in assay [8] it was 52 nM; in assay [6], 18 nM. Also, the EC50 was 3 nM in assay [4], 17 nM in assay [5] (read-out: EC50) and 3 nM in assay [7].

For the molecule `CCOC(=O)c1ccc(/C=C(\C)c2ccc3c(c2)C(C)(C)CCC3(C)C)cc1`, in [1], the IC60 is 0.33 nM.

`CC1=C(/C=C/C(C)=C/C=C/C(C)=C/C(=O)O)C(C)(C)CCC1` registered an IC60 in assay [1] of 1.4 nM.

Take `CCOC(=O)c1ccc(C#Cc2ccc3c(c2)NC(=O)CC3(C)C)cc1`: the IC60 in assay [1] was greater than 300 nM.

With `CC1(C)CC(=O)Nc2cc(C#Cc3ccc(C(=O)O)cc3)ccc21`, the Kd in assay [2], in assay [8] and in assay [6] was greater than 1000 nM throughout. Moreover, the 50% effective concentration (EC50) is 1000 nM in assay [4], “Not Active” in assay [5] and 200 nM in assay [7].

As to `CC(C)N1C(=O)CC(C)(C)c2cc(C#Cc3ccc(C(=O)O)cc3)ccc21`, the Kd amounted to 17 nM in [2], 136 nM in assay [8] and 17 nM in assay [6]. Also, the concentration for a half-maximal effect (EC50) in assay [4] was 4 nM; in assay [5], “Not Active”; in [7] it was 4 nM.

Regarding `CCOC(=O)c1ccc(C#Cc2ccc3c(c2)N(C(C)C)CCC3(C)C)cc1`, the IC60 in assay [1] is less than 0.1 nM.

Regarding `CC1(C)CCNc2ccc(C#Cc3ccc(C(=O)O)cc3)cc21`, the Kd came to 2420 nM in [2], 5200 nM in assay [8] and 714 nM in [6]. Further, the EC50 in assay [4] stood at 170 nM; in [9], 2300 nM; in assay [7], 130 nM.

Turning to `CC(C)N1CCC(C)(C)c2cc(C#Cc3ccc(C(=O)O)cc3)ccc21`, the values for the Kd in [2], in [8] and in [6] were 72 nM, 627 nM and 60 nM, respectively. Also, the figures for the EC50 in assay [4], in assay [5] and in assay [7] were 10 nM, “Not Active” and 6 nM, respectively.

`CCOC(=O)c1ccc(C#Cc2ccc3c(c2)C(C)(C)CCN3)cc1` showed an IC60 in [1] of 5 nM.

Take `CCCCCCCN1CCC(C)(C)c2cc(C#Cc3ccc(C(=O)OCC)cc3)ccc21`: the IC60 in [1] is greater than 300 nM.

In the case of `CCOC(=O)c1ccc(C#Cc2ccc3c(c2)C(C)(C)CC(=O)N3)cc1`, in assay [1], the IC60 was greater than 300 nM.

In turn, `CCOC(=O)c1ccc(C#Cc2ccc3c(c2)C(C)(C)CC(=O)N3C(C)C)cc1` yielded an IC60 in assay [1] of 6 nM.

With `CC1(C)CC(=O)Nc2ccc(C#Cc3ccc(C(=O)O)cc3)cc21`, the Kd in assay [2], in assay [8] and in [6] was greater than 1000 nM each time. Also, the EC50 result in assay [10], in assay [11] and in assay [5] was “Not Active” throughout.

As to `CCOC(=O)c1ccc(C#Cc2ccc3c(c2)NCCC3(C)C)cc1`, the IC60 in assay [1] stood at 7 nM.

As to `CCCCCCCN1CCC(C)(C)c2cc(C#Cc3ccc(C(=O)O)cc3)ccc21`, the dissociation constant Kd in [2], in assay [8] and in [6] was greater than 1000 nM each time. In addition, the half-maximal effective concentration (EC50) in assay [4] is 280 nM; in [5], “Not Active”; in assay [7], 260 nM.

For `CC(C)N1C(=O)CC(C)(C)c2ccc(C#Cc3ccc(C(=O)O)cc3)cc21`, the Kd in assay [2] came to 23 nM; in [8] it was 58 nM; in assay [6], 18 nM. The EC50 in [4] was 4 nM; in [5], “Not Active”; in assay [7], 20 nM.
